Where two headings read alike, the source gives them in different places.
Assays:
[1] = format: in vivo; conditions: rat; oral or IV administration; within minutes
Protocol: The rat PK (FIG. 6) was assessed with an oral dose of 10 mg/kg and intravenously at 1 mg/kg. […] The PK and brain concentrations were assessed in cohorts of 3 […] for each dosing group and between the plasma vs brain concentrations. For 10 mg/kg oral dosing, the PK parameters are outlined in Table 16 below.
1 mg/kg IV dosing, the PK parameters are outlined in Table 17.

[2] = rat, in vivo
5-HT1D = 5-HT1D (Homo sapiens, UniProt P28221); assay: Radioligand binding in vitro assay, 5-HT1D
Sequence of 5-HT1D (P28221 whole entry): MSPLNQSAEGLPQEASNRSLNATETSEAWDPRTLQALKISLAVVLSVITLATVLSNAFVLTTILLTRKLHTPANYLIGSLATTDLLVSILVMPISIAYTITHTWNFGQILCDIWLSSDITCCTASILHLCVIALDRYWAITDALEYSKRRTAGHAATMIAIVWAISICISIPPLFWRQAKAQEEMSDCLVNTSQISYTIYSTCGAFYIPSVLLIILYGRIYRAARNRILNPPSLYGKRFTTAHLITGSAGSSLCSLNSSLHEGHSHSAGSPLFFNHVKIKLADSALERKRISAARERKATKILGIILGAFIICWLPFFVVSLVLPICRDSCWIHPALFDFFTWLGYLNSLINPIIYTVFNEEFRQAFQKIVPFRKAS

5-HT1E = 5-HT1E (Homo sapiens, UniProt P28566); assay: Radioligand binding in vitro assay, 5-HT1E
Sequence of 5-HT1E (P28566 whole entry): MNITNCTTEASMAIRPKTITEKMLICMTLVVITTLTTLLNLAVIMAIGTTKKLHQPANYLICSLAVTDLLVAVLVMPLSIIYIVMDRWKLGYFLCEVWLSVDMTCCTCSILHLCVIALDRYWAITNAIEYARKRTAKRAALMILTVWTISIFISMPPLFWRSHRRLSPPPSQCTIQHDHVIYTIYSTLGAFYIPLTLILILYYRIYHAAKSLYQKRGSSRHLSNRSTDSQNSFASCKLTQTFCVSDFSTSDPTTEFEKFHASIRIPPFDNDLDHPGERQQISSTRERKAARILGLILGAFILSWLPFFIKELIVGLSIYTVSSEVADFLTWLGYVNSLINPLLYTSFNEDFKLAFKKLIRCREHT

5-HT7A [3] = target: T1, 5-HT7A (Homo sapiens, UniProt P34969); assay: Radioligand binding in vitro assay, 5-HT7A
T1 sequence (P34969 other isoform, or with tags, fused parts or gaps): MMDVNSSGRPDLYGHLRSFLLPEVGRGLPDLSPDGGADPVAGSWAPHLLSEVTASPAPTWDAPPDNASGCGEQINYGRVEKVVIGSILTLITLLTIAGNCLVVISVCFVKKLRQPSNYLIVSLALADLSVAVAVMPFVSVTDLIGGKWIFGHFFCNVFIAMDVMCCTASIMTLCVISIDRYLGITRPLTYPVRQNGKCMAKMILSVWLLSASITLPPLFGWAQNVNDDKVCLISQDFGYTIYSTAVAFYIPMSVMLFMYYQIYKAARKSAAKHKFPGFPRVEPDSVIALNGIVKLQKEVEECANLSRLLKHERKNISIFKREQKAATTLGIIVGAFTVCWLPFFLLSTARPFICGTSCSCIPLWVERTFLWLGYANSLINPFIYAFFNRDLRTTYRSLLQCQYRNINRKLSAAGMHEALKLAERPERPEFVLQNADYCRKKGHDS

5-HT5A = 5-HT5A (Homo sapiens, UniProt P47898); assay: Radioligand binding in vitro assay, 5-HT5A
Sequence of 5-HT5A (P47898 whole entry): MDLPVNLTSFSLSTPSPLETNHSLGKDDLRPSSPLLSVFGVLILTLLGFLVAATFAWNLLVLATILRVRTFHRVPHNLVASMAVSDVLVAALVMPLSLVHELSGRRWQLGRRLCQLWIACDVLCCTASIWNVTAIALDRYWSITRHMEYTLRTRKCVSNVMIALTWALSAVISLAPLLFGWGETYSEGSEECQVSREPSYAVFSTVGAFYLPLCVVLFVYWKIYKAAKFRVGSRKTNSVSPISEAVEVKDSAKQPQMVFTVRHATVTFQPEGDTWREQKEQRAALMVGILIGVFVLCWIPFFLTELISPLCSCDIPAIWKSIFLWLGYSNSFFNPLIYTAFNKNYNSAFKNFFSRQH

in vivo = conditions: rat, 3 mg/kg
5-HT6 [4] = target: T2, 5-HT6 (Homo sapiens, UniProt P50406); assay: Radioligand binding in vitro assay, 5-HT6
T2 sequence (P50406 whole entry): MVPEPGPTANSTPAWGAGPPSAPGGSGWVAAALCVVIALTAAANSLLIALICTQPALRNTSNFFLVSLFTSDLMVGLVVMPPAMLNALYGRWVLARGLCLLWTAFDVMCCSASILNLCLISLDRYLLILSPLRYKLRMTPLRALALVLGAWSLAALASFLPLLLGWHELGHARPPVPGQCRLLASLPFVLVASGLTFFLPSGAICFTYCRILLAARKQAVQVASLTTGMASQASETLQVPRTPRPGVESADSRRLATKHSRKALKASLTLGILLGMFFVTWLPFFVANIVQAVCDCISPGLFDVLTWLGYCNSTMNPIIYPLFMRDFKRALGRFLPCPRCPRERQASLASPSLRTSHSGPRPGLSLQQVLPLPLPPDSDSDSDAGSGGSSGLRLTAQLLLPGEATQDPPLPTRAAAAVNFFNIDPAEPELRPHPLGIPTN

Sigma 1 = Sigma 1 (Homo sapiens, UniProt Q99720); assay: Radioligand binding in vitro assay, Sigma 1
Sequence of Sigma 1 (Q99720 whole entry): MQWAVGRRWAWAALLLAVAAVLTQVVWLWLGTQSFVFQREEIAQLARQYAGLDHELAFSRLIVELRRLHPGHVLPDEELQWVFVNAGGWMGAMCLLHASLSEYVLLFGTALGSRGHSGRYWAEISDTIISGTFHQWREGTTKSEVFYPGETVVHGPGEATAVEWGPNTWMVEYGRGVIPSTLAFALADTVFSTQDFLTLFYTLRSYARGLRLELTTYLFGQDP

[5] = Rat pharmacodynamics (hypothermia) of intranasal DMT; conditions: in vivo
5-HT1B = 5-HT1B (Homo sapiens, UniProt P28222); assay: Radioligand binding in vitro assay, 5-HT1B
Sequence of 5-HT1B (P28222 whole entry): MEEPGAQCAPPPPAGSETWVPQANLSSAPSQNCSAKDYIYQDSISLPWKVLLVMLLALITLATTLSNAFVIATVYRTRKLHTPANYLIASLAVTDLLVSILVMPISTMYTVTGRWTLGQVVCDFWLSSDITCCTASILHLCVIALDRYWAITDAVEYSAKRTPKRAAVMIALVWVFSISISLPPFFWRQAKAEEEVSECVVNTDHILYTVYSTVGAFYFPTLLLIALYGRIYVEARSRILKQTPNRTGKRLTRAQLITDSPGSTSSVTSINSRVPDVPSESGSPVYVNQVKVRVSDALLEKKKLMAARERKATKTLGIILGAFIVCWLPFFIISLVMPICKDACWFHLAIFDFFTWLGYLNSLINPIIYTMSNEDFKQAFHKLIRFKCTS

Sigma 2 = Sigma 2 (Homo sapiens, UniProt Q5BJF2); assay: Radioligand binding in vitro assay, Sigma 2
Sequence of Sigma 2 (Q5BJF2 whole entry): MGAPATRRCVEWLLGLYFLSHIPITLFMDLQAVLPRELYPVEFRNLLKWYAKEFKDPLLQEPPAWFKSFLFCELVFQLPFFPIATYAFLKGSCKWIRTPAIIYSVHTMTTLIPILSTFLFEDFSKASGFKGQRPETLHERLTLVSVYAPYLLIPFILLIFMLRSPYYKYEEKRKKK

5-HT1A = 5-HT1A (Homo sapiens, UniProt P08908); assay: Radioligand binding in vitro assay, 5-HT1A
Sequence of 5-HT1A (P08908 whole entry): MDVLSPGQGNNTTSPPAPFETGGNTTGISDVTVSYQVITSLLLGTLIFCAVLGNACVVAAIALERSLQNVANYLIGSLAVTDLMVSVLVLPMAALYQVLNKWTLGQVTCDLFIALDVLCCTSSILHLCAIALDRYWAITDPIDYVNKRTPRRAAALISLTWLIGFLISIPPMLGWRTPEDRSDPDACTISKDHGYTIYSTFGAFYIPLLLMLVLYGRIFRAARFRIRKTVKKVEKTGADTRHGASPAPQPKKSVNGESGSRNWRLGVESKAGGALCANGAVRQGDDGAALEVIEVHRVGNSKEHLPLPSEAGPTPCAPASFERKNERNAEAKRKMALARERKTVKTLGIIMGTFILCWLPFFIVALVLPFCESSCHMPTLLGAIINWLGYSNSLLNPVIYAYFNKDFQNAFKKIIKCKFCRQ

5-HT2A [6] = target: T3, 5-HT2A (Homo sapiens, UniProt P28223); assay: biochemical; conditions: radioligand binding
T3 sequence (P28223 whole entry): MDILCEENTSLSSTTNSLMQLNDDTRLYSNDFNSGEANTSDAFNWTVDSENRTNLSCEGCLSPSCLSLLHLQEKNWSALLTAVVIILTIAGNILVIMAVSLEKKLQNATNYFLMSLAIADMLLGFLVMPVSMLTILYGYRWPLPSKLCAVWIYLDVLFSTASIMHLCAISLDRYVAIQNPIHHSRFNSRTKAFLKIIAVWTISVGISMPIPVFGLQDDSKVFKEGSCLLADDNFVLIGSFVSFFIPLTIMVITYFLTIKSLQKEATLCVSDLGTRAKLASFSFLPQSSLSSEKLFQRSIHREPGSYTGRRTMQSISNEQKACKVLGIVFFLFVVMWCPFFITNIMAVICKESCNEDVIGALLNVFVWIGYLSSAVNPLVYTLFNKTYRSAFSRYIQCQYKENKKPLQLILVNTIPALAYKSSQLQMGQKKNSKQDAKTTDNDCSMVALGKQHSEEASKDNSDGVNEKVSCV

5-HT2B [7] = target: T4, 5-HT2B (Homo sapiens, UniProt P41595); assay: Radioligand binding in vitro assay, 5-HT2B
T4 sequence (P41595 whole entry): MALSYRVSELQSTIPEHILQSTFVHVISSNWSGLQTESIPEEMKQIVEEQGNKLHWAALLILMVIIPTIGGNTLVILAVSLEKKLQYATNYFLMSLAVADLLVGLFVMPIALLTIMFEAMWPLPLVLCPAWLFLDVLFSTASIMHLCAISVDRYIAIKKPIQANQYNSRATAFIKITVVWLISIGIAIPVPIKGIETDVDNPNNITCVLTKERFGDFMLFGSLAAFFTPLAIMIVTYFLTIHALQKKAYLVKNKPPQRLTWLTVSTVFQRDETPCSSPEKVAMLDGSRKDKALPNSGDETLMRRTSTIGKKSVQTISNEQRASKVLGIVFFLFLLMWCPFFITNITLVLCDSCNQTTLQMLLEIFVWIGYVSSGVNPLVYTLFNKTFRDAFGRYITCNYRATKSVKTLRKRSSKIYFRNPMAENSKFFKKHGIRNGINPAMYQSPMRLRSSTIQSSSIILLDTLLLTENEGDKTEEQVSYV

5-HT2C [8] = target: T5, 5-HT2C (Homo sapiens, UniProt P28335); assay: biochemical; conditions: radioligand binding
T5 sequence (P28335 33-458): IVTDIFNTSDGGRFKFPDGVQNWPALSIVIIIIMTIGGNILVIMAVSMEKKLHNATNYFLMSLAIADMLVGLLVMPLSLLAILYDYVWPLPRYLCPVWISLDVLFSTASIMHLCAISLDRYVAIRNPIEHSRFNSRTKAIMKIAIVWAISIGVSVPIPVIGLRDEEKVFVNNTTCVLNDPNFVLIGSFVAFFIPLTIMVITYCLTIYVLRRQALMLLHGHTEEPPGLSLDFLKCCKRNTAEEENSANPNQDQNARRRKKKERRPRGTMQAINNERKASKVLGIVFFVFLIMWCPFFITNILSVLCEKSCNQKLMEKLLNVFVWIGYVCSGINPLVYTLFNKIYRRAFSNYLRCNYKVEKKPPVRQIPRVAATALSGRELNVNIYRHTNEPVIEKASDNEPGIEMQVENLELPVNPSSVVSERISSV

5-HT2A [9] = target: T3, 5-HT2A; assay: In vitro functional activity, 5-HT2A; format: biochemical; conditions: agonism
5-HT6 [10] = target: T2, 5-HT6; assay: In vitro functional activity, 5-HT6; format: biochemical; conditions: agonism
From the text: (§1) The functional activity considers agonism vs. antagonism. […] Each of these receptors affects mental health, learning, memory, and more specifically, 5-HT6 is responsible for precognitive effects and neuronal connections, growth, and migration.

5-HT2B [11] = target: T4, 5-HT2B; assay: In vitro functional activity, 5-HT2B; format: biochemical; conditions: agonism
From the text: as §1

5-HT7A [12] = target: T1, 5-HT7A; assay: In vitro functional activity, 5-HT7A; format: biochemical; conditions: agonism; inverse agonism at 5-HT7A
From the text: as §1

5-HT2C [13] = target: T5, 5-HT2C; assay: biochemical; conditions: agonism
mice [14] = assay: In vivo mouse head-twitch response
mice [15] = assay: 2-day Porsolt Forced-Swim Test; format: in vivo; conditions: Mus musculus, ip, both days, read-out: Porsolt Forced Swim (Both Days), minimum effective dose
From the text: The 2-day Porsolt Forced-Swim Test is a preclinical assay that tests for antidepressant effects in mice. […] Day 2 behavior is more likely to assess learning and memory with shorter swim times indicative of learning to be rescued.

mice [16] = assay: Elevated plus maze
mice [17] = assay: Fear extinction and conditioning; format: in vivo, mouse
From the text: The fear extinction and conditioning model is a preclinical assay that performs a stimulus and tests response time and recognition of the stimulus. This translational model can correlate to anxiety, PTSD, memory, and precognitive effects to the positive control (4-AcO-DMT).

[18] = radioligand binding, read-out: Ki 5-HT1D
[19] = radioligand binding, read-out: Ki 5-HT1E
[20] = radioligand binding, read-out: Ki 5-HT1B
[21] = radioligand binding, read-out: Ki 5-HT5A
[22] = radioligand binding, read-out: Ki Sigma 1
[23] = radioligand binding, read-out: Ki Sigma 2

With `Br.CN(C)CCc1c(Br)[nH]c2ccccc12` [2-Br-4-AcO-DMT*HBr, 2-(2-bromo-1H-indol-3-yl)-N,N-dimethylethan-1-amine hydrobromide salt] the “metabolism via deacetylation into 2-Br-4-OH-DMT” value [1] was “rapidly metabolized via deacetylation into an active metabolite”.

With `CN(C)CCc1c[nH]c2ccccc12` [N,N-dimethyltryptamine, reference compound] the “tmax (maximal effects)” value [2] was 10 min, the Ki (5-HT1D) was 42.2 nM and the Ki (5-HT1E) was 104 nM. For the same compound, the Ki (5-HT7A [3]) was 15.2 nM, the Ki (5-HT5A) was 155 nM and the Cmax (in vivo) was 60 ng/mL. The Ki (5-HT6 [4]) was 134 nM, the Ki (Sigma 1) was 230 nM and the hypothermia [5] was “dose-dependent hypothermia”. It also gave a Ki (5-HT1B) of 557 nM and a Ki (Sigma 2) of 777 nM.

With `CN(C)CCc1c(Br)[nH]c2ccccc12` [drawing 2] the Ki (5-HT1D; [18]) was > 10000 nM, the Ki (5-HT1E; [19]) was > 10000 nM and the Ki (5-HT1A) was > 10000 nM. The Ki (5-HT2A [6]) was 417 nM, the Ki (5-HT2B [7]) was 222 nM and the Ki (5-HT1B; [20]) was > 10000 nM.

With `CN(C)CCc1c(Cl)[nH]c2ccccc12` [drawing 3] the Ki (5-HT1D; [18]) was > 10000 nM, the Ki (5-HT1E; [19]) was 3910 nM and the Ki (5-HT2B [7]) was 191 nM. The Ki (5-HT1B; [20]) was > 10000 nM.

With `CC(=O)Oc1cccc2[nH]cc(CCN(C)C)c12` [drawing 4] the Ki (5-HT2B [7]) was 11.6 nM.

In the case of `CC(=O)Oc1cccc2[nH]c(Br)c(CCN(C)C)c12` [drawing 5], the Ki (5-HT1D; [18]) is reported as > 10000 nM, the Ki (5-HT1E; [19]) is reported as > 10000 nM and the Ki (5-HT2B [7]) is reported as 67.7 nM. The Ki (5-HT1B; [20]) was > 10000 nM.

For `CC(C)N(CCc1c(Br)[nH]c2ccccc12)C(C)C` [drawing 6], the Ki (5-HT1D; [18]) was 1070 nM, the Ki (5-HT1E; [19]) was > 10000 nM and the Ki (5-HT2B [7]) was 45.2 nM. The Ki (5-HT1B; [20]) was > 10000 nM.

In the case of `CN(C)CCc1c[nH]c2cccc(NS(C)(=O)=O)c12` [drawing 7], the Ki (5-HT1A) is reported as 2900 nM, the Ki (5-HT2A [6]) is reported as > 10000 nM and the Ki (5-HT2B [7]) is reported as 1900 nM.

For `CC(=O)Nc1cccc2[nH]cc(CCN(C)C)c12` [drawing 8], the Ki (5-HT1A) was 570 nM, the Ki (5-HT2A [6]) was 3400 nM and the Ki (5-HT2B [7]) was 700 nM.

In the case of `CN(C)CCc1c(Br)[nH]c2ccccc12` [drawing 9], the Ki (5-HT7A [3]; radioligand binding) is reported as 137 nM, the Ki (5-HT5A; [21]) is reported as 1520 nM and the Ki (Sigma 1; [22]) is reported as 239 nM. For the same compound, the Ki (Sigma 2; [23]) was 2460 nM.

For `CN(C)CCc1c(Cl)[nH]c2ccccc12` [drawing 10], the Ki (5-HT7A [3]; radioligand binding) was 178 nM, the Ki (5-HT5A; [21]) was 3000 nM and the Ki (5-HT6 [4]; radioligand binding) was 62 nM. The Ki (5-HT2C [8]) was 120 nM, the Ki (Sigma 1; [22]) was 638 nM and the Ki (Sigma 2; [23]) was > 10000 nM.

With `CC(=O)Oc1cccc2[nH]cc(CCN(C)C)c12` [drawing 11] the Ki (5-HT7A [3]; radioligand binding) was 59.6 nM, the Ki (Sigma 1; [22]) was > 10000 nM and the Ki (Sigma 2; [23]) was > 10000 nM.

With `CC(=O)Oc1cccc2[nH]c(Br)c(CCN(C)C)c12` [drawing 12] the Ki (5-HT7A [3]; radioligand binding) was 396 nM, the Ki (5-HT5A; [21]) was 894 nM and the Ki (5-HT6 [4]; radioligand binding) was 70.7 nM. For the same compound, the Ki (5-HT2C [8]) was 1220 nM, the Ki (Sigma 1; [22]) was > 10000 nM and the Ki (Sigma 2; [23]) was > 10000 nM.

For `CC(C)N(CCc1c(Br)[nH]c2ccccc12)C(C)C` [drawing 13], the Ki (5-HT7A [3]; radioligand binding) was 4930 nM, the Ki (5-HT5A; [21]) was > 10000 nM and the Ki (5-HT6 [4]; radioligand binding) was 407 nM. The Ki (5-HT2C [8]) was > 10000 nM, the Ki (Sigma 1; [22]) was 257 nM and the Ki (Sigma 2; [23]) was 483 nM.

In the case of `CN(C)CCc1c[nH]c2cccc(NS(C)(=O)=O)c12` [drawing 14], the Ki (5-HT7A [3]; radioligand binding) is reported as 930 nM, the Ki (5-HT6 [4]; radioligand binding) is reported as > 10000 nM and the Ki (5-HT2C [8]) is reported as > 10000 nM. For the same compound, the Ki (Sigma 1; [22]) was > 10000 nM and the Ki (Sigma 2; [23]) was > 10000 nM.

In the case of `CC(=O)Nc1cccc2[nH]cc(CCN(C)C)c12` [drawing 15], the Ki (5-HT7A [3]; radioligand binding) is reported as 290 nM, the Ki (5-HT6 [4]; radioligand binding) is reported as > 10000 nM and the Ki (5-HT2C [8]) is reported as 1000 nM. For the same compound, the Ki (Sigma 1; [22]) was > 10000 nM and the Ki (Sigma 2; [23]) was > 10000 nM.

In the case of `CN(C)CCc1c(Br)[nH]c2ccccc12` [drawing 16], the EC50 (5-HT2A [9]) is reported as > 10000 nM, the EC50 (5-HT6 [10]) is reported as 7 nM and the EC50 (5-HT2B [11]) is reported as 799 nM. The EC50 (5-HT7A [12]) was 225 nM.

Work on `CN(C)CCc1c(Cl)[nH]c2ccccc12` [drawing 17] yielded an EC50 (5-HT2A [9]) of 202 nM, an EC50 (5-HT6 [10]) of 9 nM and an EC50 (5-HT7A [12]) of 630 nM. For the same compound, the EC50 (5-HT2C [13]) was 4480 nM.

With `CC(=O)Oc1cccc2[nH]c(Br)c(CCN(C)C)c12` [drawing 18] the EC50 (5-HT6 [10]) was 8 nM, the EC50 (5-HT7A [12]) was 917 nM and the EC50 (5-HT2C [13]) was 864 nM.

In the case of `CC(C)N(CCc1c(Br)[nH]c2ccccc12)C(C)C` [drawing 19], the EC50 (5-HT2A [9]) is reported as 2130 nM, the EC50 (5-HT6 [10]) is reported as 186 nM and the EC50 (5-HT2B [11]) is reported as 18 nM. For the same compound, the EC50 (5-HT7A [12]) was 5870 nM and the EC50 (5-HT2C [13]) was > 10000 nM.

With `CN(C)CCc1c(Br)[nH]c2ccccc12` [drawing 20] the “Head Twitch Response Results” value (mice [14]) was “No Head Twitch up to 50 mg/kg”.

With `CN(C)CCc1c(Cl)[nH]c2ccccc12` [drawing 21] the “Head Twitch Response Results” value (mice [14]) was “No Head Twitch up to 100 mg/kg”.

With `CC(=O)Oc1cccc2[nH]cc(CCN(C)C)c12` [drawing 22, reference compound] the “Head Twitch Response Results” value (mice [14]) was “Positive Control causes head twitch at 20 mg/kg”.

In the case of `CC(=O)Oc1cccc2[nH]c(Br)c(CCN(C)C)c12` [drawing 23], the “Head Twitch Response Results” value (mice [14]) is reported as “No Head Twitch up to 50 mg/kg”.

In the case of `CC(C)N(CCc1c(Br)[nH]c2ccccc12)C(C)C` [drawing 24], the “Head Twitch Response Results” value (mice [14]) is reported as “No Head Twitch up to 25 mg/kg”.

With `CN(C)CCc1c[nH]c2cccc(NS(C)(=O)=O)c12` [drawing 25] the “Head Twitch Response Results” value (mice [14]) was “No Head Twitch up to 25 mg/kg”.

For `CC(=O)Nc1cccc2[nH]cc(CCN(C)C)c12` [drawing 26], the “Head Twitch Response Results” value (mice [14]) was “No Head Twitch up to 50 mg/kg”.

For `CN(C)CCc1c(Br)[nH]c2ccccc12` [drawing 27], the minimal effective dose (mice [15]) was 1 to 10 mg/kg.

Compound `CN(C)CCc1c(Cl)[nH]c2ccccc12` [drawing 28] has a minimal effective dose (mice [15]) of 25 mg/kg.

`CC(=O)Oc1cccc2[nH]c(Br)c(CCN(C)C)c12` [drawing 29] gave a minimal effective dose (mice [15]) of 5 mg/kg.

`CC(C)N(CCc1c(Br)[nH]c2ccccc12)C(C)C` [drawing 30] gave a minimal effective dose (mice [15]) of 10 mg/kg.

For `CC(=O)Oc1cccc2[nH]c(Br)c(CCN(C)C)c12` [drawing 31], the “Elevated Plus Maze, effective dose range” value (mice [16]) was 5 to 10 mg/kg.

In the case of `CC(C)N(CCc1c(Br)[nH]c2ccccc12)C(C)C` [drawing 32], the “Elevated Plus Maze, effective dose range” value (mice [16]) is reported as 25 mg/kg.

For `CN(C)CCc1c[nH]c2cccc(NS(C)(=O)=O)c12` [drawing 33], the “Elevated Plus Maze, effective dose range” value (mice [16]) was 25 mg/kg.

For `CN(C)CCc1c(Br)[nH]c2ccccc12` [drawing 34], the “Fear Extinction and Conditioning, effective dose range” value (shortened to “Fear Extinction and Conditioning”) (mice [17]) was 1 to 10 mg/kg.

In the case of `CC(=O)Oc1cccc2[nH]c(Br)c(CCN(C)C)c12` [drawing 35], the “Fear Extinction and Conditioning” value (mice [17]) is reported as 5 to 25 mg/kg.

With `CC(C)N(CCc1c(Br)[nH]c2ccccc12)C(C)C` [drawing 36] the “Fear Extinction and Conditioning” value (mice [17]) was 1 to 10 mg/kg.

Reference: patent US20260306453A1, “FORMULATIONS CONTAINING TRYPTAMINE DERIVATIVES AND USES THEREOF” (priority 2023, published 2026)
